Values joined by “and” are separate entries in the source; they are usually repeats but may differ in a detail not shown here. Equal values may be shown once. Where a name gives a salt, the structure may show the parent alone. Read-outs that look alike come from different tables or passages of the source. Marks after values point to notes of the source that are not given here.
Legend:
[1] = dog, in vivo
[2] = dog, in vivo; for Cmax (mean ng/mL ± SD) / AUC (mean ngh/mL ± SD): po
[3] = for Meptazinol T>50% Cmax: analyte meptazinol, oral 1 mg meptazinol free base equivalents/kg
[4] = for Simulated gastric fluid (pH 1.1): % remaining after 2 h/37° C. / Simulated intestinal fluid (pH 6.8): % remaining after 2 h/37° C.: simulated gi fluid
[5] = plasma meptazinol, oral 1 mg meptazinol free base/kg, group 1 dogs (G1)

COC12CCC3(CC1C(C)(O)C(C)(C)C)C1Cc4ccc(OC(=O)NC(CCCCN)C(=O)O)c5c4C3(CCN1CC1CC1)C2O5 (centres unmarked) [Buprenorphine lysine carbamate]
AUC (mean ngh/mL ± SD) [1]: 4.70
Cmax (mean ng/mL ± SD) [1]: 0.25 ± 0.19 ng/mL
Mean relative bioavailability % [1]: 38%

CSCC[C@@H](NC(=O)Oc1ccc2c3c1OC1C(=O)CC[C@@]4(O)[C@@H](C2)N(C)CC[C@]314)C(=O)O (some centres unmarked) [Oxymorphone methionine carbamate TFA]
Mean relative bioavailability % ([2]; Beagle, 0.5 mg/kg): 436%
Cmax (mean ng/mL ± SD) ([2]; Beagle, 0.5 mg/kg): 13.8 ± 4.6 ng/mL
AUC (mean ngh/mL ± SD) [2]: 55.4 ± 15.2

CCC1(c2cccc(OC(=O)NC(Cc3c[nH]c4ccccc34)C(=O)O)c2)CCCCN(C)C1.O=C(O)C(F)(F)F (mixture of isomers) [Meptazinol tryptophan carbamate TFA salt]
Mean relative bioavailability % ([3]; dog, in vivo): 149%
AUC (mean ngh/mL ± SD), *AUC0-t ([3]; dog, in vivo, po): 19.1* ± 8.9
Cmax (mean ng/mL ± SD) ([3]; dog, in vivo, po): 8.21 ± 2.56 ng/mL

CCC1(c2cccc(OC(=O)N[C@H](C(=O)O)C(C)C)c2)CCCCN(C)C1 (some centres unmarked) [Meptazinol valine carbamate zwitterion]
AUC (mean ngh/mL ± SD) ([3]; plasma meptazinol, oral 1 mg meptazinol free base/kg, group 2 dogs (G2)): 84.9 ± 40.6 ngh/mL

CCC(C)[C@@H](NC(=O)Oc1ccc2c3c1OC1[C@@]4(OC)CC[C@@]5(C[C@@H]4[C@@](C)(O)C(C)(C)C)[C@@H](C2)N(CC2CC2)CC[C@]315)C(=O)O (some centres unmarked) [Buprenorphine isoleucine carbamate]
Cmax (mean ng/mL ± SD) ([1]; beagle, po): 1.25 ± 0.51 ng/mL
Mean relative bioavailability % ([1]; beagle, po): 110%
AUC (mean ngh/mL ± SD) [1]: 13.6 ± 3.9

CN1CC[C@]23c4c5ccc(OC(=O)N[C@@H](Cc6ccccc6)C(=O)O)c4O[C@H]2C(=O)CC[C@@]3(O)[C@H]1C5 [Oxymorphone-Phe-Carbamate]
pH 10.0 buffer: % remaining after 2 h/20° C. [4]: 17%
Distilled water (pH 5.9): % remaining after 2h/20° C. [4]: 100%
Simulated gastric fluid (pH 1.1): % remaining after 2 h/37° C. [4]: 100%
Simulated intestinal fluid (pH 6.8): % remaining after 2 h/37° C. [4]: 82%

CCC1(c2cccc(OC(=O)NC(C)C(=O)NC(C)C(=O)O)c2)CCCCN(C)C1.O=C(O)C(F)(F)F (mixture of isomers) [Meptazinol ala-ala dipeptide TFA salt]
AUC (mean ngh/mL ± SD) [3, 5]: 11.4 ± 2.9 ngh/mL
Cmax (mean ng/mL ± SD) [3, 5]: 2.73 ± 1.28 ng/mL

Oxymorphone-Isoleu-Carbamate
pH 10.0 buffer: % remaining after 2 h/20° C. [4]: 36%
Distilled water (pH 5.9): % remaining after 2h/20° C. [4]: 100%
Simulated gastric fluid (pH 1.1): % remaining after 2 h/37° C. [4]: 100%
Simulated intestinal fluid (pH 6.8): % remaining after 2 h/37° C. [4]: 97%

CCC(C)[C@H](NC(=O)Oc1cccc(C2(CC)CCCCN(C)C2)c1)C(=O)O (some centres unmarked) [Meptazinol isoleucine carbamate TFA salt]
AUC (mean ngh/mL ± SD) [3, 5]: 34.9 ± 11 ngh/mL

CCC1(c2cccc(OC(=O)N[C@H](C(=O)O)C(C)C)c2)CCCCN(C)C1 (some centres unmarked) [Meptazinol valine carbamate HCl, 2-[3-(3-Ethyl-1-methyl-azepin-3-yl)-phenoxycarbonylamino]-3-methyl-butyric acid hydrochloride]
Meptazinol T>50% Cmax ([3]; individual dogs 1-5, hydrochloride): 0.5 h (3×) and 1.5 h (2×)
Meptazinol T>50% Cmax ([3]; median value): 0.5^a h
AUC (mean ngh/mL ± SD) ([3]; plasma meptazinol, oral 1 mg meptazinol free base/kg, group 2 dogs (G2), hydrochloride): 67.6 ± 9.2 ngh/mL

CCC1(c2cccc(OC(=O)N[C@H](C(=O)O)C(C)C)c2)CCCCN(C)C1 (stereo partly drawn) [Meptazinol valine carbamate TFA salt, meptazinol-(S)-valine carbamate trifluoroacetate]
AUC (mean ngh/mL ± SD) [3, 5]: 67.7 ± 25 ngh/mL

Oxymorphone-Val-Carbamate
pH 10.0 buffer: % remaining after 2 h/20° C. [4]: 32%
Distilled water (pH 5.9): % remaining after 2h/20° C. [4]: 100%
Simulated gastric fluid (pH 1.1): % remaining after 2 h/37° C. [4]: 100%
Simulated intestinal fluid (pH 6.8): % remaining after 2 h/37° C. [4]: 97%

CN1CC[C@]23c4c5ccc(OC(=O)N[C@@H](Cc6ccccc6)C(=O)O)c4O[C@H]2C(=O)CC[C@@]3(O)[C@H]1C5.Cl [Oxymorphone phenylalanine carbamate HCl]
Mean relative bioavailability % [2]: 244%
AUC (mean ngh/mL ± SD) [2]: 29.5 ± 2.2
Cmax (mean ng/mL ± SD) [2]: 5.45 ± 1.32 ng/mL

CCC1(c2cccc(OC(=O)N[C@H](C(=O)NCC(=O)O)C(C)C)c2)CCCCN(C)C1 (some centres unmarked) [Meptazinol val-gly dipeptide TFA salt]
AUC (mean ngh/mL ± SD) [3, 5]: 39.9 ± 17 ngh/mL

CCC1(c2cccc(OC(=O)NC(CC(=O)O)C(=O)O)c2)CCCCN(C)C1.O=C(O)C(F)(F)F (mixture of isomers) [Meptazinol apartic acid carbamate TFA salt]
Mean relative bioavailability % ([3]; dog, in vivo): 273%
AUC (mean ngh/mL ± SD), *AUC0-t ([3]; dog, in vivo, po): 34.8* ± 1.0
Cmax (mean ng/mL ± SD) ([3]; dog, in vivo, po): 2.65 ± 0.34 ng/mL

CSCC[C@@H](NC(=O)Oc1ccc2c3c1OC1C(=O)CC[C@@]4(O)[C@@H](C2)N(C)CC[C@]314)C(=O)O (some centres unmarked) [Oxymorphone-Methio-Carbamate]
pH 10.0 buffer: % remaining after 2 h/20° C. [4]: 8%
Distilled water (pH 5.9): % remaining after 2h/20° C. [4]: 100%
Simulated gastric fluid (pH 1.1): % remaining after 2 h/37° C. [4]: 100%
Simulated intestinal fluid (pH 6.8): % remaining after 2 h/37° C. [4]: 96%

COC12CCC3(CC1C(C)(O)C(C)(C)C)C1Cc4ccc(OC(=O)NC(CC(=O)O)C(=O)O)c5c4C3(CCN1CC1CC1)C2O5 (centres unmarked) [Buprenorphine-Asp-Carbamate]
pH 10.0 buffer: % remaining after 2 h/20° C. [4]: 85%
Distilled water (pH 5.9): % remaining after 2h/20° C. [4]: 100%
Simulated gastric fluid (pH 1.1): % remaining after 2 h/37° C. [4]: 100%
Simulated intestinal fluid (pH 6.8): % remaining after 2 h/37° C. [4]: 99%

CCC1(c2cccc(OC(=O)N[C@H](C(=O)N[C@H](C(=O)O)C(C)C)C(C)C)c2)CCCCN(C)C1 (stereo partly drawn) [Meptazinol val-val dipeptide TFA salt, meptazinol-(S)-valine-(S)-valine carbamate trifluoroacetate]
AUC (mean ngh/mL ± SD) [3, 5]: 45.0 ± 12 ngh/mL

CCC1(c2cccc(OC(=O)NC(Cc3ccc(O)cc3)C(=O)O)c2)CCCCN(C)C1.O=C(O)C(F)(F)F (mixture of isomers) [Meptazinol tyrosine carbamate TFA salt]
Mean relative bioavailability % ([3]; dog, in vivo): 52%
AUC (mean ngh/mL ± SD), *AUC0-t ([3]; dog, in vivo, po): 6.61* ± 0.70
Cmax (mean ng/mL ± SD) ([3]; dog, in vivo, po): 2.23 ± 0.16 ng/mL

Oxymorphone isoleucine carbamate TFA
Mean relative bioavailability % [2]: 570%
AUC (mean ngh/mL ± SD) [2]: 65.8 ± 32
Cmax (mean ng/mL ± SD) [2]: 17.2 ± 9.9 ng/mL

CN1CC[C@]23c4c5ccc(OC(=O)N[C@@H](Cc6ccc(O)cc6)C(=O)O)c4O[C@H]2C(=O)CC[C@@]3(O)[C@H]1C5.O=C(O)C(F)(F)F [Oxymorphone tyrosine carbamate TFA]
Mean relative bioavailability % [2]: 157%
AUC (mean ngh/mL ± SD) [2]: 17.3 ± 3.0
Cmax (mean ng/mL ± SD) [2]: 4.62 ± 1.12 ng/mL

CCC1(c2cccc(OC(=O)N[C@H](C(=O)O)C(C)C)c2)CCCCN(C)C1 (some centres unmarked) [Meptazinol-Val-Carbamate]
pH 10.0 buffer: % remaining after 2 h/20° C. [4]: 66%

CCC1(c2cccc(OC(=O)NCC(=O)O)c2)CCCCN(C)C1.O=C(O)C(F)(F)F (racemic) [Meptazinol glycine carbamate TFA salt]
Mean relative bioavailability % ([3]; dog, in vivo): 79%
AUC (mean ngh/mL ± SD), *AUC0-t ([3]; dog, in vivo, po): 10.2* ± 3.4
Cmax (mean ng/mL ± SD) ([3]; dog, in vivo, po): 2.51 ± 0.90 ng/mL

CCC1(c2cccc(OC(=O)NC(C(=O)OC)C(C)C)c2)CCCCN(C)C1.Cl (mixture of isomers) [Meptazinol valine carbamate methyl ester HCl]
Mean relative bioavailability % ([3]; dog, in vivo): 606%
AUC (mean ngh/mL ± SD) ([3]; dog, in vivo, po): 78.1 ± 17.1
Cmax (mean ng/mL ± SD) ([3]; dog, in vivo, po): 44.8 ± 8.2 ng/mL

CN1CC[C@]23c4c5ccc(OC(=O)NCC(=O)O)c4O[C@H]2C(=O)CC[C@@]3(O)[C@H]1C5.O=C(O)C(F)(F)F [Oxymorphone glycine carbamate TFA]
Mean relative bioavailability % [2]: 554%
AUC (mean ngh/mL ± SD) [2]: 67.9 ± 34.1
Cmax (mean ng/mL ± SD) [2]: 21 ± 10.9 ng/mL

CCC1(c2cccc(OC(=O)NC(C)C(=O)O)c2)CCCCN(C)C1.Cl (mixture of isomers) [Meptazinol alanine carbamate HCl salt]
Mean relative bioavailability % ([3]; dog, in vivo): 116%
AUC (mean ngh/mL ± SD) ([3]; dog, in vivo, po): 16.3 ± 3.6
Cmax (mean ng/mL ± SD) ([3]; dog, in vivo, po): 5.2 ± 1.59 ng/mL

CN1CC[C@]23c4c5ccc(O)c4O[C@H]2C(=O)CC[C@@]3(O)[C@H]1C5 [Oxymorphone HCl, reference compound]
Cmax (mean ng/mL ± SD) ([2]; Beagle, 0.5 mg/kg): 3.8 ± 0.77 ng/mL
AUC (mean ngh/mL ± SD) [2]: 12.2 ± 1.6

CCC1(c2cccc(OC(=O)N[C@H](C(=O)N[C@@H](C)C(=O)O)C(C)C)c2)CCCCN(C)C1 (some centres unmarked) [Meptazinol val-ala dipeptide TFA salt]
AUC (mean ngh/mL ± SD) [3, 5]: 36.5 ± 13 ngh/mL

Oxymorphone valine carbamate TFA
Mean relative bioavailability % [2]: 816%
AUC (mean ngh/mL ± SD) [2]: 51.2 ± 35
Cmax (mean ng/mL ± SD) [2]: 14.6 ± 8.69 ng/mL

CCC1(c2cccc(OC(=O)NC(CC(C)C)C(=O)O)c2)CCCCN(C)C1.O=C(O)C(F)(F)F (mixture of isomers) [Meptazinol leucine carbamate TFA salt]
Mean relative bioavailability % ([3]; dog, in vivo): 70%
AUC (mean ngh/mL ± SD) ([3]; dog, in vivo, po): 9.27 ± 1.6
Cmax (mean ng/mL ± SD) ([3]; dog, in vivo, po): 3.32 ± 1.4 ng/mL

CCC1(c2cccc(OC(=O)N[C@H](C(=O)O)C(C)C)c2)CCCCN(C)C1 (some centres unmarked) [Meptazinol valine carbamate camsylate]
AUC (mean ngh/mL ± SD) [3, 5]: 62.4 ± 20.4 ngh/mL

Source: patent publication US20090186832A1 (priority 2008, published 2009)
